# Assay results as given in patent publication US20100240069A1, “Drug Discovery Assay for Modulators of HIF-Prolyl Hydroxylase Activity” (Boehringer Ingelheim International GmbH, priority 2009, published 2010).
# Like-named read-outs stand apart in the source and are kept apart here.
# Columns and labels:
# [1] = system: recombinant rhesus HPH protein; assay: Effect of additives on activity of recombinant rhesus HPH enzyme; format: biochemical, rhesus monkey (Macaca mulatta)
# [2] = target: rhesus HPH1 (Macaca mulatta, UniProt H9FPE3, INS27EP); assay: biochemical
# rhesus HPH1, sequence (H9FPE3 1-405, stated change not applied): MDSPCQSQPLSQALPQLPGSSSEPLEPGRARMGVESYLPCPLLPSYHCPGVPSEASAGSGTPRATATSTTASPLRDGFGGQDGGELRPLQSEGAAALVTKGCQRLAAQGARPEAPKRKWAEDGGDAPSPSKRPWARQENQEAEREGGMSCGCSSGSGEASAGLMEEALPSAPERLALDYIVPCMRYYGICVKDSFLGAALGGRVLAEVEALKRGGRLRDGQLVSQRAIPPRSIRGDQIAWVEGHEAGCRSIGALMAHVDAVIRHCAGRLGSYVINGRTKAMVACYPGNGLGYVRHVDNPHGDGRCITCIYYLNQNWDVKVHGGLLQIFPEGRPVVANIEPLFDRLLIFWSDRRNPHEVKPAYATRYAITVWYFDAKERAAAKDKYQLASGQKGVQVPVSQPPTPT
# Method: (§1) More specifically, the HPH enzyme assay is conducted in a multi-well plate format. In a suitable buffer, a peptide substrate for the HPH, and a substrate for a protein-based pull down assay, and HPH enzyme are incubated for a period of time and at a temperature sufficient to allow the hydroxylation of the proline-containing substrate to occur. After the incubation period (e.g., 45 min.) the reaction is quenched by the addition of a solution containing the detection reagents. In specific embodiments, the solution comprises EDTA (2.5 mM) and the detection reagents (GST-VBC, Streptavidin-allophycocyanin and Europium-labeled anti-GST Antibody). The detection method in this assay is time-resolved fluorescent assay in which the time-resolved fluorescent signal (excitation at 330 nm; emission at 620 and 665 nm) is read on a plate reader after […] of incubation. The ratio of signal at 665 nm to 620 nm is used to calculate the amount of peptide interaction with GST-VBC as a measure of protein hydroxylation.
# (§2) In an exemplary assay, the assay is conducted in a 96 or 384-well plate format. In the 384-well scale, the reaction (10 μl) contains buffer (20 mM MOPS (pH 6.5), 1.5 mM magnesium chloride, 5 mM potassium chloride, 0.1% bovine serum albumin, 1 mM TCEP, 10 μM ferrous ammonium sulfate, and 2 mM sodium ascorbate), substrate (2 μM α-ketoglutarate and 60 nM HIF-1αs peptide (biotin-[…]), enzyme (e.g. 8 nM of HPH3), and an inhibitor from a DMSO solution (1% DMSO final in the assay). After 45 min, the reaction is quenched by the addition of EDTA (2.5 mM) and the detection reagents (GST-VBC, Streptavidin-allophycocyanin and Europium-labeled anti-GST Antibody). The time-resolved fluorescent signal (excitation at 330 nm; emission at 620 and 665 nm) is read on a plate reader after 1 h of incubation. The ratio of signal at 665 nm to 620 nm is used to calculate the amount of peptide interaction with GST-VBC as a measure of protein hydroxylation.
# (§3) In the assay, the biotinylated substrate is captured by the Streptavidin which is attached to allophycocyanin. The VBC interacts with the substrate and the interaction is recognized through the aid of an anti GST antibody which is labeled with europium. […] The time-resolved fluorescent signal (excitation at 330 nm; emission at 620 and 665 nm) is read on a plate reader after 1 h of incubation. The ratio of signal at 665 nm to 620 nm is used to calculate the amount of peptide interaction with GST-VBC as a measure of protein hydroxylation.
# (§4) The VBC protein complex was generated by co-expression of Glutathione S-Transferase-VHL (von Hippel Lindau), elongin B and elongin C in Escherichia coli followed by purification of the complex using glutathione affinity resin and size-exclusion chromatography.
# [3] = target: rhesus HPH2 (Macaca mulatta, UniProt I2CX88); assay: biochemical
# rhesus HPH2, sequence (I2CX88 1-426): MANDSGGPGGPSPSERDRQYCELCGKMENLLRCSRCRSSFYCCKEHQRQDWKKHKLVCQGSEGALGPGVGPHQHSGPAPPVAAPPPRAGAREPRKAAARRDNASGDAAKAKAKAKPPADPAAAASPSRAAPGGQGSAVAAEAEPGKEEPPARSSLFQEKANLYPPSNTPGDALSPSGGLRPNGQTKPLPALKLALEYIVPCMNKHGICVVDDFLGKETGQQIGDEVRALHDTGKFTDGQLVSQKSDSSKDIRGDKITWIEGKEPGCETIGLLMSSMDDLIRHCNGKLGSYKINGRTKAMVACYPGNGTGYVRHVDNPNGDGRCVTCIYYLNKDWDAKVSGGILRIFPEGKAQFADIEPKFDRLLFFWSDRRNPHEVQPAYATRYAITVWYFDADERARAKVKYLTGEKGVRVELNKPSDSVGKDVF
# Method: as §1, §2, §3, §4
# [4] = target: T1, rhesus HPH3 (Macaca mulatta, UniProt H9FPE4); assay: TR-FRET HPH enzyme assay (VBC recognition of hydroxylated peptide), HPH3; format: biochemical, rhesus monkey (Macaca mulatta); conditions: recombinant rhesus HPH3, inhibitory activity
# T1 construct: fused on or other part: GST tag, N- or C-terminal, for purification
# Method: More specifically, the HPH enzyme assay is conducted in a multi-well plate format. In a suitable buffer, a peptide substrate for the HPH, and a substrate for a protein-based pull down assay, and HPH enzyme are incubated for a period of time and at a temperature sufficient to allow the hydroxylation of the proline-containing substrate to occur. After the incubation period (e.g., 45 min.) the reaction is quenched by the addition of a solution containing the detection reagents. In specific embodiments, the solution comprises EDTA (2.5 mM) and the detection reagents (GST-VBC, Streptavidin-allophycocyanin and Europium-labeled anti-GST Antibody). The detection method in this assay is time-resolved fluorescent assay in which the time-resolved fluorescent signal (excitation at 330 nm; emission at 620 and 665 nm) is read on a plate reader after 1 of incubation. The ratio of signal at 665 nm to 620 nm is used to calculate the amount of peptide interaction with GST-VBC as a measure of protein hydroxylation.
# In an exemplary assay, the assay is conducted in a 96 or 384-well plate format. […]
# In the assay, the biotinylated substrate is captured by the Streptavidin which is attached to allophycocyanin. […] The time-resolved fluorescent signal (excitation at 330 nm; emission at 620 and 665 nm) is read on a plate reader after 1 h of incubation. […]
structure (smiles),measurement,setting,value
[Fe+2] [ferrous iron],effect on enzyme activity,"[1]; addition to recombinant rhesus HPH enzyme, isoform not stated",increased the activity of the enzyme
[Cl-].[Cl-].[Co+2] [CoCl2],effect on enzyme activity,[1],inhibited enzyme activity
NNc1nncc2ccccc12 [Hydralazine],IC50,[2],400 µM
same,IC50,[3],320 µM
O=C(O)CCC(=O)O [Succinate],IC50,"[2]; read-out: IC50 HPH1, recombinant rhesus HPH1, inhibitory activity",200 µM
same,IC50,"[3]; read-out: IC50 HPH2, recombinant rhesus HPH2, inhibitory activity",380 µM
same,IC50,[4],80 µM
